Source: US4443459A, “α-Tocopheryl ester of 5-substituted picolinic acid and hypotensive composition containing it” (Banyu Pharmaceutical Co., Ltd., priority 1981, dated 1984)
Read-outs that look alike come from different tables or passages of the source.

Key:
dopamine β-hydroxylase = molecular target: T1, dopamine β-hydroxylase (Bos taurus, UniProt P15101); experiment: 50% dopamine β-hydroxylase inhibitory concentration; type: biochemical
T1 sequence (P15101 1-610): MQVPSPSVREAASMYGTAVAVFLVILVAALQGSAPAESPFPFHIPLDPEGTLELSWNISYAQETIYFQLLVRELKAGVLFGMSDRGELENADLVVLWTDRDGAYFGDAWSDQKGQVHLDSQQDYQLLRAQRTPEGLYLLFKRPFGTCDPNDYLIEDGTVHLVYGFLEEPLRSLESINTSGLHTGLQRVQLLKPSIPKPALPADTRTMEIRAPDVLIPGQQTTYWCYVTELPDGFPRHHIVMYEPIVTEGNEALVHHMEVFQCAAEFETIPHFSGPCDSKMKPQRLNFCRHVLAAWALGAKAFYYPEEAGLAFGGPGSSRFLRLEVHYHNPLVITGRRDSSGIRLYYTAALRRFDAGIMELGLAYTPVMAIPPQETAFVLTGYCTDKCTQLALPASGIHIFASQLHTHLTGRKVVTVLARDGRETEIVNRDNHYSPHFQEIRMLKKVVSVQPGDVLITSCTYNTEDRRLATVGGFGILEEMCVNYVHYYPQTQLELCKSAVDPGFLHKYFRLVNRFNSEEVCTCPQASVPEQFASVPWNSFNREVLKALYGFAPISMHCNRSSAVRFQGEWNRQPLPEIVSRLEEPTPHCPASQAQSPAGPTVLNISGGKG

[1] = test system: Spontaneous hypertensive rats; experiment: Maximum blood pressure lowering rate, oral (Table 4); type: in vivo; conditions: Rattus norvegicus, 0.01 mmol/kg oral
Text: (§1) The following Tables 4 and 5 summarize the maximum blood pressure lowering rates and the acute toxicity values (LD50 values) of other typical examples of the compound of formula (I).
In Table 4, 0.01 mmol/kg of each compound was orally administered to spontareous hypertensive rats.

[2] = Acute toxicity LD50, intraperitoneal (Table 5); conditions: mouse, in vivo, ip
Text: as §1
In Table 5, each compound was intraperitoneally administered to mice.

in vivo = conditions: mouse, mice
Description: (§2) ddY-Strain female mice (body weight about 20 g), five per group, were used and each of the test compounds was orally or intraperitoneally administered, and two days after the administration, the number of dead mice was counted. From it, the acute toxicity LD50 of each of the compounds was determined by the Behrens-Kraerber method.

ddY-Strain female mice = experiment: in vivo; conditions: mouse, 4000 mg/kg
Description: as §2

Normotensive Wistar rats = experiment: Hypotensive action in normotensive Wistar rats, oral (tail artery pressure, plethysmography; Table 2); type: in vivo, rat (Wistar, female)
Text: (§3) dl-α-tocopheryl 5-butylpicolinate and dl-α-tocopherol were used after they were each dissolved in a suitable amount of ethyl ether, mixed with a solution containing 2% of Tween 80 and 2% of Span 40 and after removing ethyl ether, uniformly emulsified. 5-Butylpicolinic acid was used as a solution in 2% Tween 80+2% Span.
(§4) Spontaneous hypertensive rats (male, body weight 350 to 370 g) and Wistar rats with a normal blood pressure level (female, body weight 250 to270 g), three per group, were used. Without anesthesia, the pressure of the tail artery was measured by plethysmography.

[3] = test system: Spontaneous hypertensive rats; experiment: Hypotensive action in spontaneous hypertensive rats, oral (tail artery pressure, plethysmography; Table 1); type: in vivo, rat (spontaneous hypertensive, male)
Text: as §3, §4

[4] = ester of formula (I), read-out: Maximum blood pressure lowering rate (%) of the compound of the invention
[5] = read-out: LD50 of the compound of the invention
[6] = corresponding acid, read-out: Maximum blood pressure lowering rate (%) of the 5-substituted picolinic acid
[7] = intraperitoneal, mice, corresponding acid, read-out: LD50 of the 5-substituted picolinic acid
[8] = read-out: LD50 of the 5-substituted picolinic acid
[9] = 9.375 mg/kg oral, spontaneous hypertensive rats
[10] = 37.5 mg/kg oral, spontaneous hypertensive rats

SMILES	inhibition in vivo at 10 µmol/kg [1, 4]	LD50 [2, 5]	inhibition in vivo at 10 µmol/kg [1, 6]	LD50 [2, 8]	also measured
O=C(O)c1ccc(SCc2ccccc2)cn1 [Benzyl]					IC50 (dopamine β-hydroxylase; Table 6): 280 nM
CC(C)CCSc1ccc(C(=O)O)nc1 [i-Pentyl]					IC50 (dopamine β-hydroxylase; Table 6): 210 nM
Cc1c(C)c2c(c(C)c1OC(=O)c1ccc(CCCCCl)cn1)CCC(C)(CCCC(C)CCCC(C)CCCC(C)C)O2 (racemic) [Example 7, dl-α-tocopheryl 5-(4-chlorobutyl)picolinate]	50%	> 4000 mg/kg			
O=C(O)c1ccc(CCC(Br)CBr)cn1 (stereo not drawn) [5-(3,4-dibromobutyl)picolinic acid, reference compound]			50%		LD50 [2, 7]: 110 mg/kg
O=C(O)c1ccc(CCCCBr)cn1 [reference compound]			49%	46 mg/kg	
CCCCSc1ccc(C(=O)Oc2c(C)c(C)c3c(c2C)CCC(C)(CCCC(C)CCCC(C)CCCC(C)C)O3)nc1 (racemic) [Example 18, dl-α-tocopheryl 5-butylthiopicolinate]	39%	> 4000 mg/kg			
Cc1c(C)c2c(c(C)c1OC(=O)c1ccc(SCCCCl)cn1)CCC(C)(CCCC(C)CCCC(C)CCCC(C)C)O2 (racemic) [Example 23, dl-α-tocopheryl 5-(3-chloropropylthio)picolinate]	43%	> 4000 mg/kg			
Cc1c(C)c2c(c(C)c1OC(=O)c1ccc(CCCCBr)cn1)CCC(C)(CCCC(C)CCCC(C)CCCC(C)C)O2 (racemic) [Example 6, dl-α-tocopheryl 5-(4-bromobutyl)picolinate]	48%	> 4000 mg/kg			
Cc1c(C)c2c(c(C)c1OC(=O)c1ccc(OCCCCCl)cn1)CCC(C)(CCCC(C)CCCC(C)CCCC(C)C)O2 (racemic) [Example 16, dl-α-tocopheryl 5-(4-chlorobutyloxy)picolinate]	40%	> 4000 mg/kg			
Cc1c(C)c2c(c(C)c1OC(=O)c1ccc(CCC(Br)CBr)cn1)CCC(C)(CCCC(C)CCCC(C)CCCC(C)C)O2 (racemic) [Example 4, dl-α-tocopheryl 5-(3,4-dibromobutyl)picolinate]	53%	> 4000 mg/kg			
O=C(O)c1ccc(OCCCCCl)cn1 [reference compound]			43%	172 mg/kg	
O=C(O)c1ccc(CCCCCl)cn1 [reference compound]			46%	44 mg/kg	
CCCSc1ccc(C(=O)Oc2c(C)c(C)c3c(c2C)CCC(C)(CCCC(C)CCCC(C)CCCC(C)C)O3)nc1 (racemic) [Example 25, dl-α-tocopheryl 5-propylthiopicolate]	31%	> 4000 mg/kg			
O=C(O)c1ccc(SCCCCl)cn1 [3-Chloropropyl]			48%	179 mg/kg	IC50 (dopamine β-hydroxylase; Table 6): 550 nM
Cc1c(C)c2c(c(C)c1OC(=O)c1ccc(CCC(Cl)CCl)cn1)CCC(C)(CCCC(C)CCCC(C)CCCC(C)C)O2 (racemic) [Example 5, dl-α-tocopheryl 5-(3,4-dichlorobutyl)picolinate]	53%	> 4000 mg/kg			
Cc1c(C)c2c(c(C)c1OC(=O)c1ccc(Oc3ccc(Cl)cc3)cn1)CCC(C)(CCCC(C)CCCC(C)CCCC(C)C)O2 (racemic) [Example 17, dl-α-tocopheryl 5-(4-chlorophenyloxy)picolinate]	48%	> 4000 mg/kg			
CCCCSc1ccc(C(=O)O)nc1 [Referential Example 1, 5-n-butylthiopicolinic acid]			36%		IC50 (dopamine β-hydroxylase; Referential Example 1): 510 nM; LD50 [2, 7]: 143 mg/kg
CCCCOc1ccc(C(=O)Oc2c(C)c(C)c3c(c2C)CCC(C)(CCCC(C)CCCC(C)CCCC(C)C)O3)nc1 (racemic) [Example 14, dl-α-tocopheryl 5-butyloxypicolinate]	36%	> 4000 mg/kg			
O=C(O)c1ccc(Oc2ccc(Cl)cc2)cn1 [reference compound]			56%	123 mg/kg	
O=C(O)c1ccc(CCC(Cl)CCl)cn1 (stereo not drawn) [reference compound]			53%	41 mg/kg	
C=CCSc1ccc(C(=O)O)nc1 [Allyl]					IC50 (dopamine β-hydroxylase; Table 6): 550 nM
CCCCOc1ccc(C(=O)O)nc1 [reference compound]			31%	134 mg/kg	
CCCCCCCCSc1ccc(C(=O)O)nc1 [n-Octyl]					IC50 (dopamine β-hydroxylase; Table 6): 23000 nM
CSc1ccc(C(=O)O)nc1 [Methyl]					IC50 (dopamine β-hydroxylase; Table 6): 7500 nM
O=C(O)c1ccc(Cc2ccccc2)cn1 [reference compound]			39%	135 mg/kg	
CCCCc1ccc(C(=O)Oc2c(C)c(C)c3c(c2C)CCC(C)(CCCC(C)CCCC(C)CCCC(C)C)O3)nc1 (racemic) [Example 1, dl-α-tocopheryl 5-butylpicolinate]					LD50 at 48 h (in vivo; ip, acute toxicity LD50, intraperitoneally administered, calculated for 5-butylpicolinic acid, intraperitoneal): > 1210 mg/kg; LD50 at 48 h (in vivo; ip, acute toxicity LD50, intraperitoneally administered, intraperitoneal, two days after administration): > 4000 mg/kg; LD50 at 48 h (in vivo; po, acute toxicity LD50, orally administered, calculated for 5-butylpicolinic acid): > 1210 mg/kg; LD50 at 48 h (in vivo; po, acute toxicity LD50, orally administered, oral, two days after administration): > 4000 mg/kg; deaths (ddY-Strain female mice): no case of death was noted; Blood pressure lowering rate, 1h (Normotensive Wistar rats; 150 mg/kg oral, 1h, normotensive Wistar rats): 2.4%; Blood pressure lowering rate, 2h (Normotensive Wistar rats; 150 mg/kg oral, 2h, normotensive Wistar rats): 18.3%; Blood pressure lowering rate, 3h (Normotensive Wistar rats; 150 mg/kg oral, 3h, normotensive Wistar rats): 8.7%; Blood pressure lowering rate, 4h (Normotensive Wistar rats; 150 mg/kg oral, 4h, normotensive Wistar rats): 0%; blood pressure lowering effect (in words) (Normotensive Wistar rats; normotensive rats, oral, vs 5-butylpicolinic acid): weaker both in strength and duration than that of 5-butylpicolinic acid; Blood pressure lowering rate, 1h [3, 9]: 20.3%; Blood pressure lowering rate, 2h [3, 9]: 3.2%; Blood pressure lowering rate, 3h [3, 9]: 0%; Blood pressure lowering rate, 4h [3, 9]: 0%; Blood pressure lowering rate, 1h [3, 10]: 29.0%; Blood pressure lowering rate, 2h [3, 10]: 18.3%; Blood pressure lowering rate, 3h [3, 10]: 13.0%; Blood pressure lowering rate, 4h [3, 10]: 0%; selectivity of hypotensive action for hypertension (in words) ([3]; conclusion from hypertensive vs normotensive rats): more selective for hypertension than 5-butylpicolinic acid; hypotensive action (in words) ([3]; spontaneous hypertensive rats, oral, vs 5-butylpicolinic acid or its mixture with dl-α-tocopherol): strong hypotensive action on spontaneous hypertensive rats substantially equivalent to 5-butylpicolinicacid or a mixture of it with dl-α-tocopherol
CCCSc1ccc(C(=O)O)nc1 [n-Propyl, propylthiopicolinic acid]			33%	167 mg/kg	IC50 (dopamine β-hydroxylase; Table 6): 700 nM
Cc1c(C)c2c(c(C)c1OC(=O)c1ccc(Cc3ccccc3)cn1)CCC(C)(CCCC(C)CCCC(C)CCCC(C)C)O2 (racemic) [Example 9, dl-α-tocopheryl 5-benzylpicolinate]	41%	> 4000 mg/kg			
